Reference: patent US8445441B2, “Inhibitors of BCL-2” (Case Western Reserve University, priority 2007, dated 2013)

Key:
Jurkat cells [1] = test: anti-CD3-induced Ca2+ elevation by digital imaging; assay type: cell-based; settings: Jurkat cells; 60 μM peptide with Chariot reagent
Procedure: (§1) FIGS. 6A-D illustrates peptide 2 (SEQ ID NO:3) Reverses Bcl-2's Inhibition of Anti-CD3-Induced Ca^2+Elevation. (A) Representative Ca^2+ traces (each the mean of ˜65 cells) recording anti-CD3 (arrow, time of addition)-induced Ca^2+ elevation in Bcl-2(+) WEHI7.2 cells. Peptide (60 μM) uptake was facilitated by Chariot reagent. (B) Peak anti-CD3 induced Ca^2+ elevation in Bcl-2(−) and Bcl-2(+) WEHI7.2 cells treated with peptides as in (A) [mean±SEM, five experiments for Bcl-2(−) and seven experiments for Bcl-2(+) cells, with mean 68 cells per sample per experiment]. (C) Representative Ca^2+ traces in Jurkat cells (mean 85 cells each). Treatment conditions are the same as in (A), except that a control involving addition of peptide 2 without Chariot reagent has been added. (D) Peak anti-CD3-induced Ca^2+ elevation in Jurkat cells treated with peptides as in (C) (mean±SEM, seven experiments, mean 81 cells per sample per experiment).
(§2) Next we investigated whether peptide 2 also reverses Bcl-2's inhibitory effect on Ca^2+ release through the IP3R in Bcl-2(+) and (−) WEHI7.2 clones, newly derived WEHI7.2 mixed populations exogenously expressing Bcl-2, and Jurkat cells. Optimal conditions for peptide delivery and anti-CD3 concentration were determined in preliminary experiments. Peptide delivery in the lipid bilayer is 100%, whereas the penetration of peptide 2 into cells is much less, accounting for the lesser effect in cells. Therefore, a higher concentration of peptide (60 μM) was delivered into cells using the Chariot delivery reagent. Cytoplasmic Ca^2+ concentration was continuously measured at a single-cell level by digital imaging during anti-CD3 treatment. Representative Ca^2+ traces from Bcl-2(+) WEHI7.2 cells are shown in FIG. 6A, and the average Ca^2+ elevation induced by anti-CD3 in seven experiments is summarized in FIG. 6B. Observed variations in lag phase are at least partially attributable to the fact that lymphocytes are only loosely adherent to coverslips and thus rapid buffer exchange is not possible during antibody additions. Peptide 2 enhanced anti-CD3-induced Ca^2+ elevation in Bcl-2(+) WEHI7.2 cells by 40%. […] Peptide 2 had no effect on Ca^2+ elevation when added to the cells in the absence of the Chariot reagent. […] The low Bcl-2 level in Jurkat cells and the barely detectable endogenous Bcl-2 in Bcl-2(−) WEHI7.2 cells are consistent with the higher amplitude and longer duration of the Ca^2+ response in these cells in contrast to Bcl-2(+) WEHI7.2 cells (compare FIGS. 6A and 6B to FIGS. 6C and 6D). Thus, peptide 2 modulated anti-CD3-induced Ca^2+ elevation in both Bcl-2(+) WEHI7.2 cells and Jurkat cells, consistent with the ability of peptide 2 to disrupt Bcl-2-IP3R interaction.

WEHI7.2 cells = test: anti-CD3-induced Ca2+ elevation by digital imaging; assay type: cell-based; settings: Bcl-2(+) WEHI7.2 cells; 60 μM peptide with Chariot reagent
Procedure: as §1, §2

Jurkat cells [2] = test: anti-CD3-induced apoptosis (apoptotic nuclei); assay type: cell-based; settings: 60 μM peptide with Chariot, 5 μg/ml anti-CD3, 24 hr, anti-CD3 alone 20%-30%
Procedure: FIG. 7 illustrates peptide 2 Enhances Anti-CD3-Induced Apoptosis in Bcl-2-Positive Cells (A) Typical apoptotic nuclear morphology (arrow, Hoechst 33342 stain) 24 hr after 5 μg/ml anti-CD3 treatment of Jurkat cells. Scale bars, 10 μm. (B) Bcl-2(−) and Bcl-2(+) WEHI7.2 cells were pre-incubated±60 μM peptides plus Chariot reagent and then incubated with 20 μg/ml anti-CD3 for 24 hr. Symbols represent the percentage of cells (mean±SEM) with apoptotic nuclei in three experiments for Bcl-2(−) and five experiments for Bcl-2(+) cells (200 cells counted per coverslip). (C) Jurkat cells were pre-incubated±60 μM peptides±Chariot reagent and then incubated with 5 μg/ml anti-CD3 for 24 hr. Symbols represent the percentage of cells (mean±SEM) with apoptotic nuclei in five experiments (240 cells counted per coverslip).
Peptide 2 also attenuated Bcl-2's inhibition of anti-CD3-induced apoptosis in Jurkat cells. In preliminary studies (data not shown), we tested several anti-CD3 concentrations. Higher concentrations of anti-CD3 induced high levels of apoptosis that might obscure the effect of the peptide. We therefore used 5 μg/ml anti-CD3, sufficient to induce 20%-30% apoptosis.

Bcl-2-IP3R interaction [3] = target: T1, Bcl-2-IP3R interaction (Homo sapiens, UniProt P10415); test: GST pull-down of Bcl-2 from Bcl-2(+) WEHI7.2 extracts with GST-IP3R domain 3; assay type: binding, mouse; set-up: expressed in transfected cells; host or cells: Bcl-2(+) WEHI7.2 cells (source of Bcl-2); settings: 1 mM peptide
Excerpt: To identify where Bcl-2 interacts on the IP3R, we used a series of GST-IP3R fusion constructs corresponding to five fragments covering the first N-terminal 2216 amino acids and 1 fragment corresponding to the last 160 amino acids of mouse IP3R type 1 (FIG. 3). These fragments are located in the cytoplasm and coincide with “natural” domains generated by limited proteolysis. The transmembrane domain was not included. After purification, fragments migrated as single prominent bands corresponding to their expected molecular weights, although some minor degradation products were detected.
The first set of GST pull-down experiments utilized extracts of Bcl-2(+) WEHI7.2 cells and Jurkat cells as two independent sources of Bcl-2. Cell extracts were incubated with GST-IP3R fragments prebound to glutathione sepharose resin, with equal loading of the GST-IP3R fragments. […] These experiments were repeated a total of five times with the same result. It is important to note that, following incubation of cell extracts with GST-IP3R fragments on the glutathione sepharose resin, the resin was washed extensively.
Since the IP3R binding region was narrowed down to the 80 amino acid subdomain 3a1 (aa 1347-1426), we designed two 20 amino acid peptides (peptide 1, aa 1365-1384 (SEQ ID NO:2); peptide 2, aa 1389-1408 (SEQ ID NO:3)) based on the degree of homology in this region among different IP3R isoforms. Also, preference was given to regions that have beta-turn and/or α-helical structures, rather than random-coil or nonstructured sequences, expecting that one or both of the peptides could inhibit the Bcl-2-IP3R interaction. Furthermore, the C-terminal region of domain 3a1 was not selected because of its lower accessibility and unpredictable secondary structure (Invitrogen PeptideSelect Design Tool). The scrambled sequence of peptide 2 was also synthesized and used as a control. […] The inhibitory effect of peptide 2 on Bcl-2-IP3R interaction was also detected in coimmunoprecipitation assays employing both Bcl-2(+) WEHI7.2 cells (FIGS. 4A and 4B) and Jurkat cells (FIG. 4C). […]

Bcl-2-IP3R interaction [4] = target: T1, Bcl-2-IP3R interaction; test: coimmunoprecipitation of Bcl-2 with IP3R from cell extracts; assay type: binding; set-up: expressed in transfected cells; host or cells: Bcl-2(+) WEHI7.2 cells; also Jurkat cells (endogenous Bcl-2); settings: 400 μM peptide; Bcl-2(+) WEHI7.2 and Jurkat cell extracts
Procedure: FIG. 4 illustrates an IP3R Peptide Inhibits Bcl-2-IP3R Interaction but Not Bim-Bcl-2 Interaction. (A and D) IP3R was immunoprecipitated from extracts of Bcl-2(+) WEHI7.2 cells (C) or Jurkat cells in the presence of 400 μM peptides. Peptide 2, but not peptide 1 or control peptide, inhibited the Bcl-2-IP3R coimmunoprecipitation. Summary of Bcl-2 immunoblot signal intensities in three […] experiments identical to (C) (mean±SEM). (B) Bcl-2 was immunoprecipitated from Bcl-2(+) WEHI7.2 cell extracts in the presence of 400 μM peptides, and coimmunoprecipitation of Bim was detected by anti-Bim immunoblotting. […] (E) Summary of Bim immunoblot signal intensities in three experiments identical to (B) (mean±SEM).
Since the IP3R binding region was narrowed down to the 80 amino acid subdomain 3a1 (aa 1347-1426), we designed two 20 amino acid peptides (peptide 1, aa 1365-1384 (SEQ ID NO:2); peptide 2, aa 1389-1408 (SEQ ID NO:3)) based on the degree of homology in this region among different IP3R isoforms. […] The inhibitory effect of peptide 2 on Bcl-2-IP3R interaction was also detected in coimmunoprecipitation assays employing both Bcl-2(+) WEHI7.2 cells (FIGS. 4A and 4B) and Jurkat cells (FIG. 4C). […]

Bcl-XL = Bcl-XL (Homo sapiens, UniProt Q07817); settings: read-out: inhibitory concentration of 50% (IC50), displacing BH3 peptides; cited from earlier work
Bcl-B = target: T2, Bcl-B (Homo sapiens, UniProt Q9HD36); settings: read-out: inhibitory concentration of 50% (IC50), displacing BH3 peptides; cited from earlier work
T2 sequence (Q9HD36 1-204): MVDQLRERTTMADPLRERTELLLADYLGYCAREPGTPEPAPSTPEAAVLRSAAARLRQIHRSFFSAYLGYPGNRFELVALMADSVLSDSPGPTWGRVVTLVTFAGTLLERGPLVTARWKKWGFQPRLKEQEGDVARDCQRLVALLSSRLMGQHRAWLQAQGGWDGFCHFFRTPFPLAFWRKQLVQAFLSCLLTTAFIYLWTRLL

Bfl-1 = target: T3, Bfl-1 (Homo sapiens, UniProt Q16548); settings: read-out: inhibitory concentration of 50% (IC50), displacing BH3 peptides; cited from earlier work
T3 sequence (Q16548 1-175): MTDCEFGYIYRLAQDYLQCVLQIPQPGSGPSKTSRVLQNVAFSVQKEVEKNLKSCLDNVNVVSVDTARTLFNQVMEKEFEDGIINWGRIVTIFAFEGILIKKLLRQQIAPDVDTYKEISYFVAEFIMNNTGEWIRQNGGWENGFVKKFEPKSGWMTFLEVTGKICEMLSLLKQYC

T1 sequence (P10415 whole entry, the tested form may be a part): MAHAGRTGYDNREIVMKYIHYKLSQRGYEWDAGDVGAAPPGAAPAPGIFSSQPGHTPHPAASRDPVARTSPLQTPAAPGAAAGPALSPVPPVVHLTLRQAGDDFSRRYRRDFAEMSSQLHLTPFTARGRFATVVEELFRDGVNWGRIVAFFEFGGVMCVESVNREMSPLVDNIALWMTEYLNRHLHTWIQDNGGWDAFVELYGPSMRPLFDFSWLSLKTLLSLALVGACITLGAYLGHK
Sequence of Bcl-XL (Q07817 whole entry, species assumed): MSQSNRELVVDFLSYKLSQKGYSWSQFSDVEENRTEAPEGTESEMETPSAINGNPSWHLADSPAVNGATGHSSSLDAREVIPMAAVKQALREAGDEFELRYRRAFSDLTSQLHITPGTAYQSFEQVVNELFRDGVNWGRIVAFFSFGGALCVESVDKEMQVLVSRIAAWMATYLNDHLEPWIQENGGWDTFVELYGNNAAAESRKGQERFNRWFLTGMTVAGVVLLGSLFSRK

Compound | enhancement of anti-CD3-induced Ca2+ elevation (Jurkat cells [1]) | enhancement of anti-CD3-induced Ca2+ elevation (WEHI7.2 cells) | anti-CD3-induced apoptosis (percentage of apoptotic cells) (Jurkat cells [2]) | amount of Bcl-2 bound to GST-IP3R domain 3 (Bcl-2-IP3R interaction [3]) | inhibition of Bcl-2-IP3R coimmunoprecipitation (Bcl-2-IP3R interaction [4]) | IC50 (Bcl-XL) | IC50 (Bcl-B) | IC50 (Bfl-1)
MDENSPLMYHIHLVELLAVC (listed as Homo sapiens) [peptide 1, 20 amino acid peptide, aa 1365-1384 of IP3R subdomain 3a1] | did not | did not enhance | did not have an effect | partially inhibited | did not inhibit | – | – | –
Cc1cc2c(C(C)C)c(O)c(O)c(C=O)c2c(O)c1-c1c(C)cc2c(C(C)C)c(O)c(O)c(C=O)c2c1O [Gossypol, 1,6,7,1′,6′,7′-Hexahydroxy-5,5′-diisopropyl-3,3′-dimethyl-[2,2′]binaphthalenyl-8,8′-dicarbaldehyde] | – | – | – | – | – | ~500 nM | ~500 nM | ~500 nM
